In patent US20050037069A1, “Solid and stable creatine/citric acid composition(s) and compositions carbohydrate(s) or hydrates thereof, method for the production and use thereof” (priority 2002, published 2005):

Assay: Storage stability: creatinine (creatine decomposition product) content after storage
Format: physicochemical
Details: for Creatinine content / Observations: 40° C., 28 days
Procedure: A creatine-citric acid compound (3:1) (KC) as pure substance and mixtures of this compound (3:1) with 1, 5 and 10% by weight addition of a carbohydrate (CH) were stored for 28 days at 60° C. and then the contents of the creatine decomposition product creatinine were determined.

[1] = Addition: 1% by weight carbohydrate (CH)
[2] = Addition: 5% by weight carbohydrate (CH)
[3] = Addition: 10% by weight carbohydrate (CH)

## CN(CC(=O)O)C(=N)N.CN(CC(=O)O)C(=N)N.CN(CC(=O)O)C(=N)N.O=C(O)CC(O)(CC(=O)O)C(=O)O [KC without CH, creatine-citric acid compound (3:1)]
[1]
  Creatinine content: 770 ppm
  Observations: white
[2]
  Creatinine content: 770 ppm
  Observations: white
[3]
  Creatinine content: 770 ppm
  Observations: white
Reference substance before storage, limit of detection
  creatinine content, initial data: < 67 ppm
